Reference: US20070092551A1, “Therapeutic agent” (TAKARA BIO INC., priority 2003, published 2007)

Molecular target: T1, fusion protein of an yeast GAL4 DNA-binding domain and a human PPARγ ligand-binding site (Homo sapiens, UniProt P37231)
T1 construct: expressed in transfected cells; host or cells: CV-1 cells
T1 sequence (P37231 204-505): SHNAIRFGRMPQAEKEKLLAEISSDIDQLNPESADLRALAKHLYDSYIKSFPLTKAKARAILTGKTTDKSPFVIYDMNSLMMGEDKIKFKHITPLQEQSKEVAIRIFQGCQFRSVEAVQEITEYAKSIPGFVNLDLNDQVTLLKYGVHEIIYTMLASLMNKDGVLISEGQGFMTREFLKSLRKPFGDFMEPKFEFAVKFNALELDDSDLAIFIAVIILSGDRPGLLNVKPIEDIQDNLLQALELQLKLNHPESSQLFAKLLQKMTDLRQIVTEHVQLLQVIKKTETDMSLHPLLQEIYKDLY
Assay: PPARγ activation reporter assay in CV-1 cells
Type: cell-based
Details: test compound 10 μM, pFA-CMV (PPARγ), 24 hours
Protocol: The activation ability for PPARγ was determined by a reporter assay using a fusion protein of an yeast GAL4 DNA-binding domain and a human PPARγ ligand-binding site.
A plasmid (pGAL4/GL3-Promoter) was prepared by repeating five times insertion of a binding site (UASg) of GAL4 into a multicloning site of a pGL3-Promoter vector (Promega). In addition, a ligand-binding site (amino acid sequence 204 to 505) of the PPARγ gene was cloned from a human liver cDNA library (manufactured by TAKARA BIO INC.) by a polymerase chain reaction, and the ligand-binding site was inserted into a multicloning site of a pFA-CMV plasmid vector ([…]) to give pFA-CMV (PPARγ).
Escherichia coli JM-109 strain was transformed with each of the two kinds of the plasmids obtained by the above-mentioned procedures, and pFA-CMV and pRL-TK (Promega) according to a conventional method. Each of the Escherichia coli cells was cultured with shaking at 37° C. for 18 hours in an LB medium containing 100 μg/mL ampicillin. Thereafter, the plasmids of each were purified according to the procedure manual of QIAfilter Plasmid midi Kit (QIAGEN).
CV-1 cells were seeded in a 24-well plate so as to have a density of 4×10^4 cells per well. Thereafter, the cells were cultured in a Dulbecco's modified Eagle's medium (manufactured by Sigma, D5796) containing 10% fetal bovine serine (manufactured by Bio Whittaker) for 24 hours under the conditions of 37° C. and 5% CO2. Thereafter, in accordance with the procedure manual of LipofectAmine 2000 (Invitrogen), the gene transfer was carried out into the CV-1 cells with 200 ng of pFA-CMV (PPARγ) or pFA-CMV, 400 ng of pGAL4/GL3-promoter, and 200 ng of pRL-TK per well, and thereafter the cells were cultured for 24 hours under the conditions of 37° C. and 5% CO2. Thereafter, the medium was exchanged with a Dulbecco's modified Eagle's medium to which a test compound dissolved in dimethyl sulfoxide was previously added so as to have a final concentration of 10 μM. Thereafter, the cells were cultured for additional 24 hours. In addition, there were set a group with addition of dimethyl sulfoxide in place of a test compound as a negative control, and a group with addition of troglytazone (manufactured by Calbiochem) so as to have a final concentration of 3 μM as a positive control. The cells were washed with a phosphate buffered saline, and 5× PassiveLysisBuffer (Promega) which was previously diluted in 5-folds with distilled water was added thereto in an amount of 100 μL per well. The mixture was shaken at room temperature for 15 minutes to lyse cells. Twenty microliters of this lysed solution was applied in accordance with the procedure manual of Dual Luciferase Assay System (Promega), and a fluorescent luciferase emission intensity and a Renilla mullerei luciferase emission intensity were measured using Mithras-LB940 (BERTHOLD TECHNOLOGIES GmbH). The enhancing action for transcriptional activation of each test compound was shown as a relative value obtained by calculating a ratio of the fluorescent luciferase emission intensity to the Renilla mullerei luciferase emission intensity, wherein the value of the group with addition of the negative control is defined as 1.

Row | Compound | enhancing action for transcriptional activation (PPARγ)
1 | COc1ccc(C(=O)/C=C/c2ccc(O)cc2)c(O)c1C/C=C(\C)CCC=C(C)C [Xanthoangelol F, 4,2′-Dihydroxy-3′-geranyl-4′-methoxychalcone] | no enhancing action for transcriptional activation was found
2 | COc1ccc(C(=O)/C=C/c2ccc(O)cc2)c(O)c1CC=C(C)C [4-Hydroxyderricin, 4,2′-Dihydroxy-3′-prenyl-4′-methoxychalcone] | no enhancing action for transcriptional activation was found
3 | CC(C)=CCC/C(C)=C/Cc1c(O)ccc(C(=O)/C=C/c2ccc(O)cc2)c1O [Xanthoangelol, 4,2′,4′-Trihydroxy-3′-geranylchalcone] | no enhancing action for transcriptional activation was found
4 | COc1ccc(C(=O)/C=C/c2ccc(O)cc2)c2c1CC(O)C(C)(C)O2 (stereo not shown) [Xanthoangelol H] | no enhancing action for transcriptional activation was found
